The results in this text go back to patent US9365566B2 (Takeda Pharmaceutical Company Limited, priority 2012, dated 2016).

The structures appear in SMILES notation.

One may read the IC50 as the concentration that gives 50% inhibition. Read a low IC50 as inhibition by little substance.

T1 sequence (Q06187 382-659): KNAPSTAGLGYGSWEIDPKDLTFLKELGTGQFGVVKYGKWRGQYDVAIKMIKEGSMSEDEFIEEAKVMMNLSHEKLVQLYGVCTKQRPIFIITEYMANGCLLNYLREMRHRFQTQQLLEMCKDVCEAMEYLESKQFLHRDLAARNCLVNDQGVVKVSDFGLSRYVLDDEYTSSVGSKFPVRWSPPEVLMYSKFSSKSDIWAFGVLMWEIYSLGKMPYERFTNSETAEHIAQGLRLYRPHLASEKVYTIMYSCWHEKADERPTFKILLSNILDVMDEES

The assay addresses T1, human BTK (Homo sapiens, UniProt Q06187).
T1 construct: GST (Glutathione-S-Transferase) (cleaved yes); made in house; host or cells: Spodoptera frugiperda Sf9 cells (baculovirus, Bac-to-Bac)
Description: BTK inhibition assay: BTK-mediated phosphorylation of FAM-labeled substrate 5-FAM-EEPLYWSFPAKKK-NH2 (Caliper LC-3000). It is filed as biochemical. The settings on record: pIC50 = -log(IC50), IC50 molar; residues 382 to 659 of human BTK; incubated at room temperature for 60 minutes; larger values represent higher potency. From the text:
The activity of compounds as BTK inhibitors may be determined by a variety of methods, including in vitro and in vivo methods.
This construct engineers an in-frame translational fusion with the Glutathione-S-Transferase (GST) protein for use in affinity purification. The fusion protein derived from this construct contains a protease recognition sequence to liberate the BTK from the GST affinity tag. High-titer baculoviral stocks, generated using the Bac-to-Bac® system (Invitrogen), are used to express the recombinant protein in Spodoptera frugiperda Sf9 cells in 10 L Wave bags. Recombinant proteins are isolated from cellular extracts by passage over Glutathione Sepharose 4B (GE Healthcare) and the BTK moiety is released from the GST affinity tag by treatment with PreScission protease. The BTK recombinant protein is further purified by size exclusion chromatography (HiLoad 16/60 Superdex 200, GE Healthcare) in a buffer containing 20 mM Hepes (pH 7.4), 50 mM NaCl, 10 mM MgCl2, 0.25 mM TCEP and 0.1 mM EDTA. The purity of the fractions is assessed by SDS PAGE and the peak protein fractions are pooled and concentrated using Amicon Ultra-15 Centrifugal Filter Devices (Millipore).
The inhibitory properties of compounds relative to BTK is determined using a black 384-well-plate format in a buffer which contains 50 mM Hepes, 10 mM NaCl, 10 mM MgCl2, 0.2 mM EDTA, 0.01% Brij35®, 1 mM DTT, and 0.1 mg/mL BSA at pH 7.3. The test compound is prepared in DMSO using 2-fold serial dilutions for 11 data points, which are added to the buffer so that each dilution contains 3% DMSO. […] The reaction mixtures are incubated at room temperature for 60 minutes and then quenched by adding 25 μL of 50 mM EDTA. To quantify the fluorescent-labeled substrate and product following reaction, the test plate is loaded on a Caliper LC-3000, which measures percent of conversion by microfluidic-based separation.
The compounds were tested in accordance with the assay described on page 34 of the specification.
In turn, `NC(=O)c1nnc2c(-c3ccc4nc(CC5CCCCC5)[nH]c4c3)cccc2c1N` [Example 78, 4-amino-8-(2-(cyclohexylmethyl)-1H-benzo[d]imidazol-6-yl)cinnoline-3-carboxamide] had an IC50 of 79.4 nM. That is a double-digit nanomolar value.
As to `Cc1ccc2c(N)c(C(N)=O)nnc2c1-c1ccc2nncn2c1` [Example 112, 8-([1,2,4]triazolo[4,3-a]pyridin-6-yl)-4-amino-7-methylcinnoline-3-carboxamide], the IC50 was 100 nM.
Consider `NC(=O)c1nnc2c(-c3ccc4nc(-c5cncs5)[nH]c4c3)cccc2c1N` [Example 82, 4-amino-8-(2-(thiazol-5-yl)-1H-benzo[d]imidazol-6-yl)cinnoline-3-carboxamide], for which the IC50 is 200 nM.
The compound `NC(=O)c1nnc2c(-c3ccc4nc(-c5cn6ccccc6n5)[nH]c4c3)cccc2c1N` [Example 75, 4-amino-8-(2-(imidazo[1,2-a]pyridin-2-yl)-1H-benzo[d]imidazol-6-yl)cinnoline-3-carboxamide] gave an IC50 of 126 nM. Against the preceding compound, the IC50 is about 1.6-fold lower.
With `COc1cc2cn[nH]c2cc1-c1cccc2c(N)c(C(N)=O)nnc12` [Example 110, 4-amino-8-(5-methoxy-1H-indazol-6-yl)cinnoline-3-carboxamide] the figure was 3.98 nM; with `COc1ccc(-c2nc3ccc(-c4cccc5c(N)c(C(N)=O)nnc45)cc3[nH]2)cc1` [Example 74, 4-amino-8-(2-(4-methoxyphenyl)-1H-benzo[d]imidazol-6-yl)cinnoline-3-carboxamide], 79.4 nM; with `Cn1ccc2cc(-c3cccc4c(N)c(C(N)=O)nnc34)ccc21` [Example 5, 4-amino-8-(1-methyl-1H-indol-5-yl)cinnoline-3-carboxamide], 3980 nM.
Under `Cn1cnc2cc(-c3cccc4c(N)c(C(N)=O)nnc34)cnc21` [Example 13, 4-amino-8-(3-methyl-3H-imidazo[4,5-b]pyridin-6-yl)cinnoline-3-carboxamide] stands 39800 nM; under `COc1ccc2c(N)c(C(N)=O)nnc2c1-c1ccc2cn[nH]c2c1` [Example 41, 4-amino-8-(1H-indazol-6-yl)-7-methoxycinnoline-3-carboxamide], 25.1 nM.
With `Cc1ccc2c(N)c(C(N)=O)nnc2c1-c1ccc2[nH]nnc2c1` [Example 48, 4-amino-8-(1H-benzo[d][1,2,3]triazol-5-yl)-7-methylcinnoline-3-carboxamide] the figure was 20 nM.
`Cc1ccc2c(N)c(C(N)=O)nnc2c1-c1ccc2c(F)n[nH]c2c1` [Example 100, 4-amino-8-(3-fluoro-1H-indazol-6-yl)-7-methylcinnoline-3-carboxamide] gave an IC50 of 25.1 nM.
Under `NC(=O)c1nnc2c(-c3ccc4nc[nH]c4c3)cccc2c1N` [Example 4, 4-amino-8-(1H-benzo[d]imidazol-6-yl)cinnoline-3-carboxamide] stands 79.4 nM; under `CCn1cnc2cc(-c3c(C)ccc4c(N)c(C(N)=O)nnc34)ccc21` [Example 132, 4-amino-8-(1-ethyl-1H-benzo[d]imidazol-5-yl)-7-methylcinnoline-3-carboxamide], 1260 nM.
As to `COc1ccc(-c2cc3[nH]ncc3cc2C)c2nnc(C(N)=O)c(N)c12` [Example 39, 4-amino-5-methoxy-8-(5-methyl-1H-indazol-6-yl)cinnoline-3-carboxamide], the IC50 is 7.94 nM. Against the preceding compound, the IC50 is about 160-fold lower.
With `CC(C)(O)CCN1Cc2cc(-c3cccc4c(N)c(C(N)=O)nnc34)ccc2C1=O` [Example 127, 4-amino-8-(2-(3-hydroxy-3-methylbutyl)-1-oxoisoindolin-5-yl)cinnoline-3-carboxamide] the figure was 25.1 nM; with `NC(=O)c1nnc2c(-c3ccc4nc(C5CCCC5)[nH]c4c3)cccc2c1N` [Example 72, 4-amino-8-(2-cyclopentyl-1H-benzo[d]imidazol-6-yl)cinnoline-3-carboxamide], 1260 nM.
With `NC(=O)c1nnc2c(-c3ccc4nc(-c5ccc(F)cc5)[nH]c4c3)cccc2c1N` [Example 116, 4-amino-8-(2-(4-fluorophenyl)-1H-benzo[d]imidazol-6-yl)cinnoline-3-carboxamide] the figure was 39.8 nM; with `NC(=O)c1nnc2c(-c3cnc4cc[nH]c4c3)cccc2c1N` [Example 3, 4-amino-8-(1H-pyrrolo[3,2-b]pyridin-6-yl)cinnoline-3-carboxamide], 316 nM.
Under `NC(=O)c1nnc2c(-c3ccc4nc(C5CCCCC5)[nH]c4c3)cccc2c1N` [Example 68, 4-amino-8-(2-cyclohexyl-1H-benzo[d]imidazol-6-yl)cinnoline-3-carboxamide] stands 158 nM; under `Cc1ccc2c(N)c(C(N)=O)nnc2c1-c1ccc2nc(-c3ccc(F)cc3)[nH]c2c1` [Example 120, 4-amino-8-(2-(4-fluorophenyl)-1H-benzo[d]imidazol-6-yl)-7-methylcinnoline-3-carboxamide], 25.1 nM.
Compound `Cn1ncc2cc(-c3cc(C(F)(F)F)cc4c(N)c(C(N)=O)nnc34)ccc21` [Example 34, 4-amino-8-(1-methyl-1H-indazol-5-yl)-6-(trifluoromethyl)cinnoline-3-carboxamide] gave an IC50 of 1580 nM.
With `NC(=O)c1nnc2c(-c3ccc4nc(NCC5CC5)[nH]c4c3)cccc2c1N` [Example 65, 4-amino-8-(2-((cyclopropylmethyl)amino)-1H-benzo[d]imidazol-6-yl)cinnoline-3-carboxamide] the figure was 63.1 nM; with `CN1Cc2cc(-c3cccc4c(N)c(C(N)=O)nnc34)ccc2C1=O` [Example 123, 4-amino-8-(2-methyl-1-oxoisoindolin-5-yl)cinnoline-3-carboxamide], 200 nM; with `Cc1ccc2c(N)c(C(N)=O)nnc2c1-c1ccc2ncn(CCC#N)c2c1` [Example 133, 4-amino-8-(1-(2-cyanoethyl)-1H-benzo[d]imidazol-6-yl)-7-methylcinnoline-3-carboxamide], 501 nM.
Under `CCn1cnc2ccc(-c3c(C)ccc4c(N)c(C(N)=O)nnc34)cc21` [Example 131, 4-amino-8-(1-ethyl-1H-benzo[d]imidazol-6-yl)-7-methylcinnoline-3-carboxamide] stands 100 nM; under `Cn1cnc2cc(-c3cccc4c(N)c(C(N)=O)nnc34)ccc21` [Example 12, 4-amino-8-(1-methyl-1H-benzo[d]imidazol-5-yl)cinnoline-3-carboxamide], 15800 nM; under `Cc1ccc(CNc2nc3ccc(-c4cccc5c(N)c(C(N)=O)nnc45)cc3[nH]2)cc1` [Example 95, 4-amino-8-(2-(4-methylbenzylamino)-1H-benzo[d]imidazol-6-yl)cinnoline-3-carboxamide], 63.1 nM.
With `Cc1ccc2c(N)c(C(N)=O)nnc2c1-c1cnc2c(c1)ncn2C` [Example 98, 4-amino-7-methyl-8-(3-methyl-3H-imidazo[4,5-b]pyridin-6-yl)cinnoline-3-carboxamide] the figure was 5010 nM; with `Cc1ccc2c(N)c(C(N)=O)nnc2c1-c1ccc2c(C#N)n[nH]c2c1` [Example 96, 4-amino-8-(3-cyano-1H-indazol-6-yl)-7-methylcinnoline-3-carboxamide], 158 nM; with `CN(Cc1ccccc1)c1nc2ccc(-c3cccc4c(N)c(C(N)=O)nnc34)cc2[nH]1` [Example 92, 4-amino-8-(2-(benzyl(methyl)amino)-1H-benzo[d]imidazol-6-yl)cinnoline-3-carboxamide], 1000 nM.
On to `Cc1c(-c2cccc3c(N)c(C(N)=O)nnc23)ccc2[nH]ncc12` [Example 31, 4-amino-8-(4-methyl-1H-indazol-5-yl)cinnoline-3-carboxamide], for which the IC50 was 39.8 nM.
Under `NC(=O)c1nnc2c(-c3ccc4nc(Cc5ccccc5)[nH]c4c3)cccc2c1N` [Example 77, 4-amino-8-(2-benzyl-1H-benzo[d]imidazol-6-yl)cinnoline-3-carboxamide] stands 631 nM; under `Cn1ncc2ccc(-c3cccc4c(N)c(C(N)=O)nnc34)cc21` [Example 1, 4-amino-8-(1-methyl-1H-indazol-6-yl)cinnoline-3-carboxam], 1580 nM; under `CC(C)(C)Cc1nc2ccc(-c3cccc4c(N)c(C(N)=O)nnc34)cc2[nH]1` [Example 66, 4-amino-8-(2-neopentyl-1H-benzo[d]imidazol-6-yl)cinnoline-3-carboxamide], 631 nM.
Under `Cc1cc(C)cc(-c2nc3ccc(-c4cccc5c(N)c(C(N)=O)nnc45)cc3[nH]2)c1` [Example 80, 4-amino-8-(2-(3,5-dimethylphenyl)-1H-benzo[d]imidazol-6-yl)cinnoline-3-carboxamide] stands 39.8 nM.
